In patent US8937183B2, “Detection of hydrogen peroxide” (Promega Corporation, priority 2011, dated 2015):

Assay: Generation of bioluminescence from luciferin borates upon treatment with hydrogen peroxide (luciferase light reaction)
Assay type: biochemical
Protocol: In this example, luciferin borates were incubated with hydrogen peroxide, and luciferin generation was measured using a light reaction catalyzed by luciferase. An increase in light output (bioluminescence) as a result of treatment of the luciferin borates with hydrogen peroxide indicates generation of luciferin as a result of the reaction with hydrogen peroxide.
1 M phosphate solutions (either 6.8 g of KH2PO4 (Fisher) or 11.4 g of K2HPO4 (Sigma) were dissolved in Nanopure water to 1 M) were diluted 1:5 with Nanopure water to produce 200 mM phosphate solutions. 200 mM phosphate buffers at pH 6.87, 7.41, 7.73, 8.04, and 9.18 were prepared. 4 mg/ml solutions of PBI 3048, 4013, 4424 and 4425 (FIG. 1) in DMSO (Fluka 41641) were made from solid powder.
Into two 96-well white, solid bottom luminometer plates (Promega Z3291) (labeled “A” and “B”), 50 μl of 200 mM phosphate buffer pH 6.87 was added to wells A1-H2; 50 μl of 200 mM phosphate pH 7.41 was added to wells A3-H4; 50 μl of 200 mM phosphate buffer pH 7.73 was added to wells A5-H6; 50 μl of 200 mM phosphate buffer pH 8.04 was added to wells A7-H8; and 50 μl of 200 mM phosphate buffer pH 9.18 was added to wells A9-H10.
50 μl of 4 mg/ml PBI 4013 in DMSO was diluted to 1.25 ml with Nanopure water, and 25 μl added to wells A1-D10 of plate A. 50 μl of 4 mg/ml PBI 4424 was diluted to 1.25 ml with Nanopure water, and 25 μl added to E1-H10 of plate A. 50 μl of 4 mg/ml PBI 3048 was diluted to 1.25 ml with Nanopure water, and 25 μl added to A1-D10 of plate B. 50 μl of 4 mg/ml PBI 4425 was diluted to 1.25 ml with Nanopure water, and 25 μl added to E1-H10 of plate B. 25 μl of Nanopure water was added to rows A and E of both plates. 17 μl of Nanopure water was added to rows B and F of both plates; and 8 μl of Nanopure water was added to rows C and G of both plates
A hydrogen peroxide solution (30% hydrogen peroxide, Sigma H1009-5 ml) was diluted to 60 μM hydrogen peroxide with Nanopure water, and 25 μl of the 60 μM hydrogen peroxide was added to rows D and H of both plates; 17 μl of […] hydrogen peroxide was added to rows C and G of both plates; and 8 μl of […] hydrogen peroxide was added to rows B and F of both plates. Both plates A and B were then gently mixed for 70 minutes.
A bottle of Reconstitution Buffer with Esterase (Promega V144B) was thawed and used to reconstitute a Luciferin Detection Reagent (Promega V859B) to create a reconstituted Luciferin Detection Reagent (“LDR”). 15 ml of 1 M HEPES buffer, pH 7.5 was mixed with 25 ml of the LDR, and 80 μl added to wells A1-H10 of two new luminometer plates (“R1” and “R2”).
Following incubation, 20 μl of the contents of wells A1-H10 of plate A was transferred to the same wells in plate R1, and 20 μl of A1-H10 of plate B was transferred to the same wells in plate R2. Plate R1 and R2 were then incubated at room temperature for 15 minutes, and bioluminescence was measured with a GloMax® luminometer (Promega Corp).
Bioluminescence from duplicate wells was averaged, and the average relative light units (RLUs) from samples containing peroxide were compared to those from the samples not containing peroxide incubated at the same pH (Table 1).

Q: With O=C(O)C1CSC(c2nc3ccc(OCc4ccc(B(O)O)cc4)cc3s2)=N1 (stereo not drawn) [PBI 3048] as the compound, how does the “average relative light units (bioluminescence)” value (shortened to “average relative light units”) (H2O2 0 μM, phosphate buffer pH 6.87, 70 minutes) read?
A: 392,535 RLU

Q: What about the “average relative light units” value (H2O2 0 μM, phosphate buffer pH 7.41, 70 minutes) of the same compound?
A: 418,478 RLU

Q: And the “average relative light units” value (H2O2 0 μM, phosphate buffer pH 7.73, 70 minutes)?
A: 470,830 RLU

Q: What about the “average relative light units” value (H2O2 0 μM, phosphate buffer pH 8.04, 70 minutes) of the same compound?
A: 561,030 RLU

Q: What about the “average relative light units” value (H2O2 0 μM, phosphate buffer pH 9.18, 70 minutes) of the same compound?
A: 819,156 RLU

Q: What about the “average relative light units” value (H2O2 5 μM, phosphate buffer pH 6.87, 70 minutes) of the same compound?
A: 521,375 RLU

Q: And the “average relative light units” value (H2O2 5 μM, phosphate buffer pH 7.41, 70 minutes)?
A: 794,181 RLU

Q: What about the “average relative light units” value (H2O2 5 μM, phosphate buffer pH 7.73, 70 minutes) of the same compound?
A: 1,200,842 RLU

Q: What about the “average relative light units” value (H2O2 5 μM, phosphate buffer pH 8.04, 70 minutes) of the same compound?
A: 1,831,013 RLU

Q: And the “average relative light units” value (H2O2 5 μM, phosphate buffer pH 9.18, 70 minutes)?
A: 3,834,248 RLU

Q: And the “average relative light units” value (H2O2 10 μM, phosphate buffer pH 6.87, 70 minutes)?
A: 717,216 RLU

Q: And the “average relative light units” value (H2O2 10 μM, phosphate buffer pH 7.41, 70 minutes)?
A: 1,302,514 RLU

Q: What about the “average relative light units” value (H2O2 10 μM, phosphate buffer pH 7.73, 70 minutes) of the same compound?
A: 2,057,780 RLU

Q: What about the “average relative light units” value (H2O2 10 μM, phosphate buffer pH 8.04, 70 minutes) of the same compound?
A: 3,137,287 RLU

Q: What about the “average relative light units” value (H2O2 10 μM, phosphate buffer pH 9.18, 70 minutes) of the same compound?
A: 6,426,397 RLU

Q: And the “average relative light units” value (H2O2 15 μM, phosphate buffer pH 6.87, 70 minutes)?
A: 833,785 RLU

Q: What about the “average relative light units” value (H2O2 15 μM, phosphate buffer pH 7.41, 70 minutes) of the same compound?
A: 1,709,044 RLU

Q: What about the “average relative light units” value (H2O2 15 μM, phosphate buffer pH 7.73, 70 minutes) of the same compound?
A: 2,713,251 RLU

Q: What about the “average relative light units” value (H2O2 15 μM, phosphate buffer pH 8.04, 70 minutes) of the same compound?
A: 4,193,451 RLU

Q: What about the “average relative light units” value (H2O2 15 μM, phosphate buffer pH 9.18, 70 minutes) of the same compound?
A: 7,447,757 RLU

Q: And the “light signal increase upon addition of hydrogen peroxide (in words)” value (all pH values 6.87 to 9.18)?
A: increased strongly
